Key:
β6 integrin promoter = experiment: Chromatin immunoprecipitation of pCREB on β6 integrin promoter in NP cells; format: cell-based, mouse; conditions: ChIP, most distal CREB site (Primer 1)
Protocol: The ChIP assays were carried out using the Thermo Fisher ChIP Kit (catalog number: 26156). The crude homogenate from the NP cells was crosslinked with 1% formaldehyde at room temperature for 10 min. The reaction was stopped by adding glycine (0.25 M). After centrifugation, the pellet was collected and lysed in SDS lysis buffer containing protease inhibitor cocktail. The lysis was sonicated until the DNA was broken into fragments with a mean length of 200-1,000 bp. The samples were first pre-cleaned with protein G agarose and then subjected to immunoprecipitation overnight with […] of rabbit antibodies against pCREB (CST, 1:50) With […] of normal rabbit serum overnight at 4° C. The 10-20% of the sample for immunoprecipitation was used as an input (a positive control).

NP cells = experiment: iPTH in IFT88-/- and wild-type mice: immunostaining of pSmad2/3, CCN2, ACAN; format: in vivo, mouse
Protocol: The 11 month-old PTH1R^+/+ and PTH1R^−/− male mice were randomized into four groups: PTH1R^+/++PTH (1-34), PTH1R^+/++Vehicle, PTH1R^−/−+PTH (1-34) and PTH1R^−/−+Vehicle groups (n=8 per group). The 11 month-olds IFT88^+/+ and IFT88^−/− male mice were randomized into four groups: IFT88^+/++PTH (1-34), IFT88^+/++Vehicle, IFT88^−/−+PTH (1-34) and IFT88^−/−+Vehicle groups (n=8 per group). Mice were subcutaneously injected with either PTH (1-34) or vehicle (1 mM acetic acid in phosphate buffered saline (PBS) with equivalent volume of PTH) daily, 5 days per week, and all mice were sacrificed 4 weeks after treatment with PTH (1-34)/vehicle.
(§1) For immunocytochemical staining, we incubated GFP labeled NP cells co-stained with primary antibody to rabbit PTH1R PRB-635P (Covance, 1:100) for 1 h and subsequently stained with secondary antibodies conjugated with fluorescence at room temperature. At the time of euthanasia, we dissected and fixed the lumbar vertebral spine in 10% buffered formalin for 48 h, decalcified them in 10% EDTA (pH 7.4) for 14-21 days and embedded them in paraffin or optimal cutting temperature (OCT) compound (Sakura Finetek). Fourmicrometer-thick coronal-oriented sections of the L1-L6 spine were processed for safranin O and fast green staining. Sections for immunostaining was performed using a standard protocol and incubated with primary antibodies to rabbit ACAN (Abcam, 1:100), CCN2 (Abcam, 1:100), integrin β8 (Abcam, 1:200), pCREB (Abcam, 1:100) and PTH1R PRB-635P (Covance, 1:100), mouse pSmad2/3 (Santa Cruz, 1:100), integrin αvβ6 (Millipore, 1:100), integrin αvβ3 (Bioss, 1:100,), integrin αvβ5 (Bioss, 1:100) at 4° C. overnight. For immunohistochemical staining, a horse radish peroxidase-streptavidin detection system (Dako) was subsequently used to detect the immunoactivity, followed by counterstaining with hematoxylin (Sigma-Aldrich). For immunofluorescent assay, the slides were incubated with secondary antibodies conjugated with fluorescence at room temperature for 1 h while avoiding light. We used isotype-matched controls, such as polyclonal rabbit IgG (R&D Systems, AB-105-C) under the same concentrations and conditions as negative controls. We micro photographed sections to perform histomorphometric measurements on the entire area of the L3-L4 of the spine (Olympus DP71).
(§2) Quantitative histomorphometric analysis was conducted in a blinded fashion with Image-Pro Plus Software version 6.0 (Media Cybernetics Inc). IVD histological score were obtained as previously described67. Five randomly selected sections per mice in each group at L3-L4 level were chosen for quantitative histomorphometric analysis. The percentage of pSmad2/3 and pCREB positive cells was obtained by counting the number of positive staining cells to the number of total cells in the NP region. The percentage area of CCN2 and ACAN positive staining was calculated by measuring the positive area to the whole area of the L3-L4 in each group.

TGF-β = experiment: ELISA of total and active TGF-β in NP tissue of aged mice; format: in vivo, mouse; conditions: 18-month-old mice
Protocol: For cAMP assays, confluent cells were grown in 35-mm six-well plates starved overnight by incubation in serum-free α-MEM at 37° C. The cells were then treated with 100 nM human of human PTH (1-34; Bachem Calif., Inc.) for 1 h. Cellular cAMP was extracted and the concentration measured with the Biotrak enzyme immunoassay system (GE Healthare, Inc., Princeton, HJ). We determined the concentration of total and active TGF-β in the NP tissue using the ELISA Development Kit (R&D Systems) according to the manufacturer's instructions.

18-month-old mice [1] = experiment: iPTH in aged mice: in vivo micro-MRI of lumbar IVDs; design: species or system mouse; conditions: iPTH injection
Protocol: In vivo Spinal IVD imaging was conducted with a horizontal 30-cm-bore 9.4T Bruker Biospec preclinical scanner equipped with custom-built, single-turn volume coil positioned orthogonal to the BO magnetic field. Anesthetization of mice was initiated with 4% isoflurane and maintained with a 2% isoflurane and oxygen mixture. Mice were placed supine on a tray and taped to minimize the motion artifacts. We acquired T2-weighted images using a relaxation enhancement (RARE) sequence with the following parameter: an echo time/repetition time (TE/TR) of 15.17 ms/3,000 ms, 35 slices at thickness of 0.35 mm, field of view (FOV) of 1.75 cm×1.75 cm and matrix size of 256×128. All T2-weighted images were processed to a final matrix size of 256×256 with an isotropic resolution of 0.068 mm pixel-1. For quantification of signal intensity as an indicator of disc tissue hydration, the region of interest at L3-L4 level in each group was selected and measured using Image-Pro Plus Software version 6.

18-month-old mice [2] = experiment: iPTH in aged mice: safranin O staining and immunostaining of IVD sections; format: in vivo, mouse
Protocol: as §1, §2

[3] = wild-type mice relative to vehicle mice

Q: With CC[C@H](C)[C@H](NC(=O)[C@H](CCC(=O)O)NC(=O)[C@H](CO)NC(=O)[C@@H](NC(=O)[C@@H](N)CO)C(C)C)C(=O)N[C@@H](CCC(N)=O)C(=O)N[C@@H](CC(C)C)C(=O)N[C@@H](CCSC)C(=O)N[C@@H](Cc1cnc[nH]1)C(=O)N[C@@H](CC(N)=O)C(=O)N[C@@H](CC(C)C)C(=O)NCC(=O)N[C@@H](CCCCN)C(=O)N[C@@H](Cc1cnc[nH]1)C(=O)N[C@@H](CC(C)C)C(=O)N[C@@H](CC(N)=O)C(=O)N[C@@H](CO)C(=O)N[C@@H](CCSC)C(=O)N[C@@H](CCC(=O)O)C(=O)N[C@@H](CCCN=C(N)N)C(=O)N[C@H](C(=O)N[C@@H](CCC(=O)O)C(=O)N[C@@H](Cc1c[nH]c2ccccc12)C(=O)N[C@@H](CC(C)C)C(=O)N[C@@H](CCCN=C(N)N)C(=O)N[C@@H](CCCCN)C(=O)N[C@@H](CCCCN)C(=O)N[C@@H](CC(C)C)C(=O)N[C@@H](CCC(N)=O)C(=O)N[C@@H](CC(=O)O)C(=O)N[C@H](C(=O)N[C@@H](Cc1cnc[nH]1)C(=O)N[C@@H](CC(N)=O)C(=O)N[C@@H](Cc1ccccc1)C(=O)O)C(C)C)C(C)C [PTH (1-34), teriparatide] as the compound, how does the “binding of pCREB to the β6 integrin promoter” value (β6 integrin promoter) read?
A: Its value is “inducing direct binding of pCREB”.

Q: What about the “PTH effect on level of CCN2” value (NP cells; IFT88-/- mice) of the same compound?
A: Its value is “blunted”.

Q: What about the “PTH effect on level of aggrecan” value (NP cells; IFT88-/- mice) of the same compound?
A: Its value is “blunted”.

Q: What about the “PTH effect on number of pSmad2/3+ NP cells” value (NP cells; IFT88-/- mice) of the same compound?
A: The value was “blunted”.

Q: And the “level of CCN2” value (NP cells; [3])?
A: The value was “significantly stimulated”.

Q: And the level of aggrecan (NP cells; [3])?
A: Its level of aggrecan is “significantly stimulated”.

Q: What about the “number of pSmad2/3+ NP cells” value (NP cells; [3]) of the same compound?
A: Its value is “significantly stimulated”.

Q: What about the “level of active TGF-β in IVDs” value (TGF-β) of the same compound?
A: The value was “increased”.

Q: What about the “total TGF-β level” value (TGF-β) of the same compound?
A: The value was “not changed”.

Q: What about the “MRI signal intensity of lumbar IVDs” value (18-month-old mice [1]) of the same compound?
A: Its value is “significantly increased”.

Q: What about the IVD score (18-month-old mice [2]) of the same compound?
A: Its IVD score is “decrease”.

Q: What about the “level of CCN2+” value (18-month-old mice [2]; immunostaining) of the same compound?
A: The value was “increased”.

Q: What about the level of aggrecan (18-month-old mice [2]; immunostaining) of the same compound?
A: The level of aggrecan was “increased”.

Q: What about the “number of pSmad2/3+ NP cells” value (18-month-old mice [2]; immunostaining) of the same compound?
A: The value was “increased”.

Q: And the “number of NP cells” value (18-month-old mice [2]; safranin O)?
A: The value was “significantly increased”.
